Counter-ions that a name gives are not always drawn.
Columns and labels:
[1] = target: T1, OBP19b (Drosophila melanogaster, UniProt Q9VR95); assay: biochemical; parameters: competitive NPN probe displacement from recombinant OBP19b, fluorescence 340/415 nm, single concentration, per cent fluorescence displacement; settings: NPN displacement; buffer blank 13.4 % not subtracted
T1 construct: mature OBP19b without its native signal peptide
T1 sequence (Q9VR95 34-163): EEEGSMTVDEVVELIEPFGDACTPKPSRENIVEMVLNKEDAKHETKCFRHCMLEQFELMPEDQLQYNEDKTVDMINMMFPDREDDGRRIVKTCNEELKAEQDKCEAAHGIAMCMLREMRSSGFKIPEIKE
Experimental: To measure the affinity of OBP19b to ligands, a competitive screening assay was performed at 23 °C using a 96-well microplate format and a Victor3 V microplate reader (PerkinElmer Life Sciences) with 25 and 5 nm slits for excitation and emission, respectively. The excitation wavelength was 340 nm, and the fluorescence emission intensity was recorded at 415 nm. First, a wide screening array involving various ligand compounds was performed. Each well contained 200 µL of 2 µM OBP19b with 4 µM NPN dissolved in 50 mM sodium phosphate buffer at pH 7.5. Fatty acids and bitter compounds were tested in the µM range, whereas sugars, amino acids, vitamins, acids, amines, and isothiocyanate compounds were tested in the mM range. All tested compounds were dissolved in 10% methanol except amino acids, which were dissolved in 50 mM sodium phosphate buffer at pH 7.5. Based on the results of the first screen, the 20 L-amino acids, certain D-amino acids and three nonproteinogenic amino acids were tested by adding 100 µL of a 30 mM ligand stock solution to the microplate wells to obtain a final concentration of 15 mM, and then the solution was mixed. Significant differences using one-way analysis of variance (ANOVA) followed by Dunnett’s test were observed compared to the buffer (***p < 0.001; **p < 0.01). The competitive-binding curves were identified by titration of OBP19b/NPN complex with aliquots of 50 mM ligand to final concentration ranging from 0 to 20 mM. The dissociation constants (Kdapp) of each compound were calculated according to the corresponding IC50 values (the concentration of ligands required to halve the initial fluorescence value of NPN) using the following equation: Kdapp = [IC50]/(1 + […]/KNPN), where [NPN] is the free concentration of NPN. The reported Kdapp values are the average of three measurements performed on three independently experiments.  Fig. 2 Binding properties of OBP19b with a competitive fluorescent assay. The fluorescent displacement of the fluorescent probe NPN by various taste compounds was evaluated by adding aliquots of 50 mM ligand (dissolved in 50 mM sodium phosphate buffer at pH 7.5) to final concentration ranging from 0 to 20 mM. a Fatty acid esters and bitter compounds were tested at a final concentration of 40 µM. b Amino acids, vitamins, acids, amines, trigeminal (isothiocyanate), and sugars compounds were tested at a 15 mM final concentration. c Fluorescent displacement of 20 L-amino acids, including L-phenylalanine (L-Phe: magenta color), L-glutamine (L-Gln: green) and L-alanine (L-Ala: cyan); three nonproteinogenic amino acids L-ornithine (L-Orn), L-canavanine (L-Can), L-citrulline (L-Cit); and three D-amino acids (D-phenylalanine: orange, D-glutamine: blue, and D-alanine: gray). Dots indicate essential amino acids. Statistical differences were determined using one-way ANOVA followed by Dunnett’s test (***p < 0.001; **p < 0.01). d Competitive-binding curves of L-Phe and L-Gln (showing the lowest Kdapp), L-Ala (negative control), and their three corresponding D-isomers. Data values represent the mean ± SEM.

[2] = target: T1, OBP19b; assay: direct fluorescence titration with fluorescent probe; assay type: binding
[3] = target: T1, OBP19b; assay: competitive NPN fluorescence displacement, single dose […]; assay type: binding

Structure (SMILES) | inhibition at 15000 µM [1] [%] | also measured
N[C@@H](Cc1c[nH]cn1)C(=O)O [L-histidine] | 7.44 | 
N[C@@H](Cc1ccccc1)C(=O)O [L-Phe, L-phenylalanine] | 44 | 
CC(C)[C@H](N)C(=O)O [L-valine] | 16.2 | 
C[C@H](N)C(=O)O [L-alanine] | 27.2 | 
c1ccc(Nc2cccc3ccccc23)cc1 [NPN, N-phenyl-1-naphthylamine] |  | Kd [2]: 4.1 ± 0.9 µM
N[C@@H](CS)C(=O)O [L-cysteine] | -14.4 | 
CC(C)C[C@H](N)C(=O)O [L-leucine] | 22.8 | 
C[C@@H](O)[C@H](N)C(=O)O [L-threonine] | 17.8 | 
N[C@@H](CO)C(=O)O [L-serine] | 46.2 | 
NCC(=O)O [Glycine] | 31.6 | 
NC(=O)CC[C@@H](N)C(=O)O [D-glutamine] | 22.6 | 
NCCCC[C@H](N)C(=O)O [L-lysine] | 20.2 | 
N[C@@H](CC(=O)O)C(=O)O [L-aspartic acid] | 43.4 | 
NC(=O)CC[C@H](N)C(=O)O [L-Gln, L-glutamine] | 40.7 | 
C[C@@H](N)C(=O)O [D-alanine] | 23.5 | 
N[C@@H](Cc1ccc(O)cc1)C(=O)O [L-tyrosine] | -122 | 
COc1ccc(Cc2nccc3cc(OC)c(OC)cc23)cc1OC [papaverine] |  | competitive NPN fluorescence displacement, single dose 40 μM [3]: The highest level of fluorescence displacement was induced by papaverine, berberine, 2-phenylethyl isothiocyanate
CC[C@H](C)[C@H](N)C(=O)O [L-isoleucine] | 22.8 | 
N[C@@H](CCC(=O)O)C(=O)O [L-glutamic acid] | -0.061 | 
N=C(N)NCCC[C@H](N)C(=O)O [L-arginine] | 40.5 | 
NCCC[C@H](N)C(=O)O [L-ornithine dihydro chloride] | 25.1 | 
CSCC[C@H](N)C(=O)O [L-methionine] | 37.3 | 
N[C@@H](Cc1c[nH]c2ccccc12)C(=O)O [L-tryptophan] | 36.2 | 
NC(=O)C[C@H](N)C(=O)O [L-asparagine] | 41.2 | 
COc1ccc2cc3[n+](cc2c1OC)CCc1cc2c(cc1-3)OCO2 [berberine] |  | competitive NPN fluorescence displacement, single dose 40 μM [3]: The highest level of fluorescence displacement was induced by papaverine, berberine, 2-phenylethyl isothiocyanate
N[C@H](Cc1ccccc1)C(=O)O [D-phenylalanine] | 28.3 | 
O=C(O)[C@@H]1CCCN1 [L-proline] | 20.1 | 
NC(N)=NOCC[C@H](N)C(=O)O [L-canavanine sulfate salt] | 22.2 | 
